According to patent US10717716B2, “1,3,4-oxadiazole derivative compounds as histone deacetylase 6 inhibitor, and the pharmaceutical composition comprising the same” (Chong Kun Dang Pharmaceutical Corp., priority 2015, dated 2020):

Assays:
human recombinant HDAC1 = target: T1, human recombinant HDAC1 (Homo sapiens, UniProt Q13547); test: HDAC1 enzyme activity inhibition assay (HDAC Fluorimetric Drug Discovery Kit); assay type: biochemical; details: human recombinant HDAC1, Fluor de Lys substrate 10 μM, 30° C. 60 minutes
T1 construct: purchased Enzo Life Science BML-SE456
T1 sequence (Q13547 whole entry): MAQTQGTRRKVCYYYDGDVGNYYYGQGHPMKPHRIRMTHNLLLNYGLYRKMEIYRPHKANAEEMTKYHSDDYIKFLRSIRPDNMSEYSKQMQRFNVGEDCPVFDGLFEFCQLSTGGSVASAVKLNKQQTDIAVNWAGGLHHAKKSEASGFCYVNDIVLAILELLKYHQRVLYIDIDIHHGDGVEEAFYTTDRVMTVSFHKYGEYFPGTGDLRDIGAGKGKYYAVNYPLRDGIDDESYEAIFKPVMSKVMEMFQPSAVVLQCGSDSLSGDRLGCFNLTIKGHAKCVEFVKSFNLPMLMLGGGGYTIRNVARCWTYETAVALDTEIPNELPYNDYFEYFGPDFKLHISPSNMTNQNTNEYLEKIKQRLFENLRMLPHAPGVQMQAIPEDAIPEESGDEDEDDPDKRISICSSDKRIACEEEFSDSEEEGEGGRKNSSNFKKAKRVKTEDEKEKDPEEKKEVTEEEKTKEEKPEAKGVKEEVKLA
Method: In order to examine the HDAC6 selectivity of the compounds of formula I of the present invention by HDAC1 and HDAC6 enzymatic activity inhibition assays, an experiment was performed using a conventional substance as a control.
HDAC enzyme activity was measured using a HDAC Fluorimetric Drug Discovery Kit (BML-AK511, 516, Enzo Life Science). For the HDAC1 enzyme activity test, human recombinant HDAC1 (BML-SE456) was used as an enzyme source, and Fluor de Lys®-“SIRT1 (BNL-KI177) was used as a substrate. A 5-fold dilution of the compound was seeded into a 96-well plate, and then 0.3 μg of the enzyme and 10 μM of the substrate were added to each well of the plate and allowed to react at 30° C. for 60 minutes. Then, Fluor de Lys®-Developer II (BML-KI176) was added thereto and allowed to react for 30 minutes, after which the fluorescence value (Ex 360, Em 460) was measured using a multi-plate reader (Flexstation 3, Molecular Device). The HDAC6 enzyme was tested using human recombinant HDAC6 (382180) (Calbiochem) according to the same protocol as the HDAC1 enzyme activity test method. Based on the resulting values, each IC5, value was calculated using GraphPad Prism4.0 program.

human recombinant HDAC6 = target: T2, human recombinant HDAC6 (Homo sapiens, UniProt Q9UBN7); test: HDAC6 enzyme activity inhibition assay (HDAC Fluorimetric Drug Discovery Kit); assay type: biochemical; details: for HDAC6 selectivity (fold): HDAC6 over HDAC1; for IC50: human recombinant HDAC6, same protocol as HDAC1, read-out: HDAC6
T2 construct: purchased Calbiochem 382180
T2 sequence (Q9UBN7 1-1215): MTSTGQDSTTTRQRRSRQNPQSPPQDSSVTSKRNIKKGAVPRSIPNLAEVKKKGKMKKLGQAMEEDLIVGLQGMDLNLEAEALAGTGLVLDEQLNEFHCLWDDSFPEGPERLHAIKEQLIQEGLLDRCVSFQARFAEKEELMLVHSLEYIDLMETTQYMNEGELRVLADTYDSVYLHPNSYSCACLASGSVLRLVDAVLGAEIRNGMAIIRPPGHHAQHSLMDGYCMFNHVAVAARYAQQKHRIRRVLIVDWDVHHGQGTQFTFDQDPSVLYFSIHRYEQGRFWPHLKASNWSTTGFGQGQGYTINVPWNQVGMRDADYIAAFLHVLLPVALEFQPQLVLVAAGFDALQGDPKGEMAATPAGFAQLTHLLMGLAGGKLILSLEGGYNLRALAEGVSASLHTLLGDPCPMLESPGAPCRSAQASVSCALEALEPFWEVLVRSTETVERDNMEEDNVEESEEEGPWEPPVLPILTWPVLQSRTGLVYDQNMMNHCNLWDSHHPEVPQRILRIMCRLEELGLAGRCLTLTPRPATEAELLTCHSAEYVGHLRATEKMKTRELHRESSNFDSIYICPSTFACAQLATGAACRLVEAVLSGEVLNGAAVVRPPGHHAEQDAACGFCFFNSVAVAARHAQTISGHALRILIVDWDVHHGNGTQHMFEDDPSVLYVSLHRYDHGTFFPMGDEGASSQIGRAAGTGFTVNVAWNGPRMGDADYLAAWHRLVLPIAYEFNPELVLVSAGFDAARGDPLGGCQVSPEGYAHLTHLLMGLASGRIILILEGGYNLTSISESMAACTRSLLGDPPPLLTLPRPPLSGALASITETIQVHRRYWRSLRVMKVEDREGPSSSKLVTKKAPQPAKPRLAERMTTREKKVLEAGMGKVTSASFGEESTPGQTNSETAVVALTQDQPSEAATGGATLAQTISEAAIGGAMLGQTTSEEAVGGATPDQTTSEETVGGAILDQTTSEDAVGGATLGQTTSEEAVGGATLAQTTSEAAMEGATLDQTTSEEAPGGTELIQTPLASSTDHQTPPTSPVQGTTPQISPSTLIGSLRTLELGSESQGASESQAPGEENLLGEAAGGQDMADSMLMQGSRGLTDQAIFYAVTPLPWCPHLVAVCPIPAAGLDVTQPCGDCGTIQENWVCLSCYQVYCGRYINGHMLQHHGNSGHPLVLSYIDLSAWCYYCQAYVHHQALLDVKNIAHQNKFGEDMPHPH
Summary of the method: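 Fluorimetric deacetylase assay: 5-fold serial compound dilutions, 0.3 μg recombinant human enzyme (HDAC1 or HDAC6, same protocol), 10 μM Fluor de Lys-SIRT1 substrate, 60 min at 30 °C. Signal developed 30 min, measured at 360/460 nm; IC50 values derived.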

| SMILES | IC50 (human recombinant HDAC1) [µM] | HDAC6 selectivity (fold) (human recombinant HDAC6) | IC50 (human recombinant HDAC6) [µM] |
| --- | --- | --- | --- |
| CCN1CCN(C(=O)N(Cc2ccc(-c3nnc(C(F)(F)F)o3)cc2F)c2ccc(F)c(Br)c2)CC1 [Compound 21658, N-(3-bromo-4-fluorophenyl)-4-ethyl-N-(2-fluoro-4-(5-(trifluoromethyl)-1,3,4-oxadiazol-2-yl)benzyl)piperazine-1-carboxamide] | 8.44 | 59 | 0.144 |
| CCN1CCN(C(=O)N(Cc2ccc(-c3nnc(C(F)(F)F)o3)cc2F)c2cccc(F)c2F)CC1 [Compound 21659, N-(2,3-difluorophenyl)-4-ethyl-N-(2-fluoro-4-(5-(trifluoromethyl)-1,3,4-oxadiazol-2-yl)benzyl)piperazine-1-carboxamide] | 15.7 | 153 | 0.102 |
| CCN1CCN(C(=O)N(Cc2ccc(-c3nnc(C(F)(F)F)o3)cc2F)c2ccc(C)c(Cl)c2)CC1 [Compound 21660, N-(3-chloro-4-methylphenyl)-4-ethyl-N-(2-fluoro-4-(5-(trifluoromethyl)-1,3,4-oxadiazol-2-yl)benzyl)piperazine-1-carboxamide] | 24.8 | 80 | 0.309 |
| O=C(N1CC[C@@H](O)C1)N(Cc1ccc(-c2nnc(C(F)(F)F)o2)cc1F)c1ccc(F)c(Cl)c1 [Compound 21664, (R)—N-(3-chloro-4-fluorophenyl)-N-(2-fluoro-4-(5-(trifluoromethyl)-1,3,4-oxadiazol-2-yl)benzyl)-3-hydroxypyrrolidine-1-carboxamide] | 17.1 | 114 | 0.151 |
| O=C(N1CC[C@H](F)C1)N(Cc1ccc(-c2nnc(C(F)F)o2)cc1F)c1ccc(F)c(Cl)c1 [Compound 21665, (S)—N-(3-chloro-4-fluorophenyl)-N-(4-(5-(difluoromethyl)-1,3,4-oxadiazol-2-yl)-2-fluorobenzyl)-3-fluoropyrrolidine-1-carboxamide] | 19.1 | 917 | 0.021 |
| O=C(N1CC[C@H](F)C1)N(Cc1ccc(-c2nnc(C(F)(F)F)o2)cc1F)c1ccc(F)c(Cl)c1 [Compound 21666, (S)—N-(3-chloro-4-fluorophenyl)-3-fluoro-N-(2-fluoro-4-(5-(trifluoromethyl)-1,3,4-oxadiazol-2-yl)benzyl)pyrrolidine-1-carboxamide] | 20.5 | 55 | 0.374 |
| O=C(N1CCC(F)(F)C1)N(Cc1ccc(-c2nnc(C(F)F)o2)cc1F)c1ccc(F)c(Cl)c1 [Compound 21667, N-(3-chloro-4-fluorophenyl)-N-(4-(5-(difluoromethyl)-1,3,4-oxadiazol-2-yl)-2-fluorobenzyl)-3,3-difluoropyrrolidine-1-carboxamide] | 20.1 | 485 | 0.041 |
| O=C(N1CCC(F)(F)C1)N(Cc1ccc(-c2nnc(C(F)(F)F)o2)cc1F)c1ccc(F)c(Cl)c1 [Compound 21668, N-(3-chloro-4-fluorophenyl)-3,3-difluoro-N-(2-fluoro-4-(5-(trifluoromethyl)-1,3,4-oxadiazol-2-yl)benzyl)pyrrolidine-1-carboxamide] | 10.4 | 41 | 0.253 |
| O=C(N1CCN(CCO)CC1)N(Cc1ccc(-c2nnc(C(F)(F)F)o2)cc1F)c1ccc(F)c(Cl)c1 [Compound 21669, N-(3-chloro-4-fluorophenyl)-N-(2-fluoro-4-(5-(trifluoromethyl)-1,3,4-oxadiazol-2-yl)benzyl)-4-(2-hydroxyethyl)piperazine-1-carboxamide] | 7.47 | 46 | 0.164 |

The next lines start with the values.

| IC50 (human recombinant HDAC1) [µM] | HDAC6 selectivity (fold) (human recombinant HDAC6) | IC50 (human recombinant HDAC6) [µM] | SMILES |
| --- | --- | --- | --- |
| 23.2 | 675 | 0.034 | O=C(N1CCN(CCO)CC1)N(Cc1ccc(-c2nnc(C(F)F)o2)cc1F)c1ccc(F)c(Cl)c1 [Compound 21679, N-(3-chloro-4-fluorophenyl)-N-(4-(5-(difluoromethyl)-1,3,4-oxadiazol-2-yl)-2-fluorobenzyl)-4-(2-hydroxyethyl)piperazine-1-carboxamide] |
| 58.5 | 2255 | 0.026 | CN1CCN(C(=O)N(Cc2ccc(-c3nnc(C(F)F)o3)cc2F)c2cccc3c2cnn3C)CC1 [Compound 21709, N-(4-(5-(difluoromethyl)-1,3,4-oxadiazol-2-yl)-2-fluorobenzyl)-4-methyl-N-(1-methyl-1H-indazol-4-yl)piperazine-1-carboxamide] |
| 67.7 | 2651 | 0.026 | Cn1ncc2c(N(Cc3ccc(-c4nnc(C(F)F)o4)cc3F)C(=O)N3CCS(=O)(=O)CC3)cccc21 [Compound 21710, N-(4-(5-(difluoromethyl)-1,3,4-oxadiazol-2-yl)-2-fluorobenzyl)-N-(1-methyl-1H-indazol-4-yl)thiomorpholine-4-carboxamide 1,1-dioxide] |
| 20.7 | 736 | 0.028 | Cn1ncc2ccc(N(Cc3ccc(-c4nnc(C(F)F)o4)cc3F)C(=O)N3CCOCC3)cc21 [Compound 21724, N-(4-(5-(Difluoromethyl)-1,3,4-oxadiazol-2-yl)-2-fluorobenzyl)-N-(1-methyl-1H-indazol-6-yl)morpholine-4-carboxamide] |
| 19.1 | 662 | 0.029 | CCN1CCN(C(=O)N(Cc2ccc(-c3nnc(C(F)F)o3)cc2F)c2ccc3cnn(C)c3c2)CC1 [Compound 21735, N-(4-(5-(difluoromethyl)-1,3,4-oxadiazol-2-yl)-2-fluorobenzyl)-4-ethyl-N-(1-methyl-1H-indazol-6-yl)piperazine-1-carboxamide] |
| 17.7 | 432 | 0.041 | CN(C)[C@@H]1CCN(C(=O)N(Cc2ccc(-c3nnc(C(F)F)o3)cc2F)c2ccc3cnn(C)c3c2)C1 [Compound 21736, (R)—N-(4-(5-(difluoromethyl)-1,3,4-oxadiazol-2-yl)-2-fluorobenzyl)-3-(dimethylamino)-N-(1-methyl-1H-indazol-6-yl)pyrrolidine-1-carboxamide] |
| 42.6 | 2023 | 0.021 | O=C(N1CCS(=O)(=O)CC1)N(Cc1ccc(-c2nnc(C(F)F)o2)cc1F)c1ccccc1F [Compound 21808, N-(4-(5-(difluoromethyl)-1,3,4-oxadiazol-2-yl)-2-fluorobenzyl)-N-(2-fluorophenyl)thiomorpholine-4-carboxamide 1,1-dioxide] |
| 15.7 | 883 | 0.018 | O=C(N1CCS(=O)(=O)CC1)N(Cc1ccc(-c2nnc(C(F)F)o2)cc1F)c1cccc(Cl)c1 [Compound 21810, N-(3-chlorophenyl)-N-(4-(5-(difluoromethyl)-1,3,4-oxadiazol-2-yl)-2-fluorobenzyl)thiomorpholine-4-carboxamide 1,1-dioxide] |
